Data reported in patent US20070066516A1, “Compounds comprising cyclized somatostatin receptor binding peptides” (priority 2005, published 2007).
Where a SMILES comes first, the peptide text is derived from it. Side-chain parts run from the residue outwards. [ ]: non-standard residue; d: D form. The star is where a group is joined. X1 = CC(C(=O)*)N1CCN(CC(=O)O)CCN(CC(=O)O)CCN(CC(=O)O)CC1; Tpi = O=C(O)[C@@H]1Cc2c([nH]c3ccccc23)CN1; Dip = N[C@H](C(=O)O)C(c1ccccc1)c1ccccc1; Phe(4-F) = N[C@@H](Cc1ccc(F)cc1)C(=O)O; 1Nal = N[C@@H](Cc1cccc2ccccc12)C(=O)O; 2Nal = N[C@@H](Cc1ccc2ccccc2c1)C(=O)O; Ala(cPr) = N[C@@H](CC1CC1)C(=O)O; NMeF = CN[C@@H](Cc1ccccc1)C(=O)O; 4Pal = N[C@@H](Cc1ccncc1)C(=O)O; Thz = O=C(O)[C@@H]1CSCN1; Dap = NC[C@H](N)C(=O)O

B1: P2265 (peptide)
peptide: cyclo(Y[dW]KTM[NMeF])
SMILES: CSCC[C@@H]1NC(=O)[C@H]([C@@H](C)O)NC(=O)[C@H](CCCCN)NC(=O)[C@@H](Cc2c[nH]c3ccccc23)NC(=O)[C@H](Cc2ccc(O)cc2)NC(=O)[C@H](Cc2ccccc2)N(C)C1=O
notes: Cyclic hexapeptide; also called cyclo[Tyr-DTrp-Lys-Thr-Met-(NMe)Phe]
B2: P2266 (peptide)
peptide: cyclo(Y[dW]KVM[NMeF])
SMILES: CSCC[C@@H]1NC(=O)[C@H](C(C)C)NC(=O)[C@H](CCCCN)NC(=O)[C@@H](Cc2c[nH]c3ccccc23)NC(=O)[C@H](Cc2ccc(O)cc2)NC(=O)[C@H](Cc2ccccc2)N(C)C1=O
notes: Cyclic hexapeptide; also called cyclo[Tyr-DTrp-Lys-Val-Met-(NMe)Phe]
B3: P2292 (peptide)
peptide: cyclo([Phe(4-F)][dW]KTM[NMeF])
SMILES: CSCC[C@@H]1NC(=O)[C@H]([C@@H](C)O)NC(=O)[C@H](CCCCN)NC(=O)[C@@H](Cc2c[nH]c3ccccc23)NC(=O)[C@H](Cc2ccc(F)cc2)NC(=O)[C@H](Cc2ccccc2)N(C)C1=O
notes: Cyclic hexapeptide; also called cyclo[Phe(4-F)-DTrp-Lys-Thr-Met-(N-Me)Phe]
B4: P2297 (peptide)
peptide: cyclo([Thz][dW]KTMF)
SMILES: CSCC[C@@H]1NC(=O)[C@H]([C@@H](C)O)NC(=O)[C@H](CCCCN)NC(=O)[C@@H](Cc2c[nH]c3ccccc23)NC(=O)[C@@H]2CSCN2C(=O)[C@H](Cc2ccccc2)NC1=O
notes: Cyclic hexapeptide; also called cyclo[ThioPro-DTrp-Lys-Thr-Met-Phe]
B5: P2326 (peptide)
peptide: cyclo([Dip][dW]KTM[NMeF])
SMILES: CSCC[C@@H]1NC(=O)[C@H]([C@@H](C)O)NC(=O)[C@H](CCCCN)NC(=O)[C@@H](Cc2c[nH]c3ccccc23)NC(=O)[C@H](C(c2ccccc2)c2ccccc2)NC(=O)[C@H](Cc2ccccc2)N(C)C1=O
notes: Cyclic hexapeptide; also called cyclo[DiphenylAla-DTrp-Lys-Thr-Met-(N-Me)Phe]
B6: P2278 (peptide)
peptide: cyclo([1Nal][dW]KTM[NMeF])
modifications: also: tested peptides comprised a lanthanide chelation unit, not shown
notes: also called cyclo[(1)Nal-DTrp-Lys-Thr-Met-(NMe)Phe]
B7: P2329 (peptide)
peptide: cyclo([1Nal][dW]KVM[NMeF])
SMILES: CSCC[C@@H]1NC(=O)[C@H](C(C)C)NC(=O)[C@H](CCCCN)NC(=O)[C@@H](Cc2c[nH]c3ccccc23)NC(=O)[C@H](Cc2cccc3ccccc23)NC(=O)[C@H](Cc2ccccc2)N(C)C1=O
notes: Cyclic hexapeptide; also called cyclo[1Nal-DTrp-Lys-Val-Met-(N-Me)Phe]
B8: P2279 (peptide)
peptide: cyclo([2Nal][dW]KTM[NMeF])
SMILES: CSCC[C@@H]1NC(=O)[C@H]([C@@H](C)O)NC(=O)[C@H](CCCCN)NC(=O)[C@@H](Cc2c[nH]c3ccccc23)NC(=O)[C@H](Cc2ccc3ccccc3c2)NC(=O)[C@H](Cc2ccccc2)N(C)C1=O
notes: Cyclic hexapeptide; also called cyclo[2Nal-Dtrp-Lys-Thr-Met-(N-Me)Phe]
B9: P2281 (peptide)
peptide: cyclo([4Pal][dW]KTM[NMeF])
SMILES: CSCC[C@@H]1NC(=O)[C@H]([C@@H](C)O)NC(=O)[C@H](CCCCN)NC(=O)[C@@H](Cc2c[nH]c3ccccc23)NC(=O)[C@H](Cc2ccncc2)NC(=O)[C@H](Cc2ccccc2)N(C)C1=O
notes: Cyclic hexapeptide; also called cyclo[(4)Pal-DTrp-Lys-Thr-Met-(NMe)Phe]

Columns and labels:
SSTR5 = SSTR5 (Homo sapiens, UniProt P35346); test: Radioligand binding assay on membranes of CHO-K1 cells expressing SSTR5; settings: for Ratio 2/5 in %: ratio of IC50 SSTR2 / IC50 SSTR5 in %; for IC50: membranes from CHO-K1 cells stably expressing cloned somatostatin receptor 5
Chain of SSTR5 (P35346 whole entry): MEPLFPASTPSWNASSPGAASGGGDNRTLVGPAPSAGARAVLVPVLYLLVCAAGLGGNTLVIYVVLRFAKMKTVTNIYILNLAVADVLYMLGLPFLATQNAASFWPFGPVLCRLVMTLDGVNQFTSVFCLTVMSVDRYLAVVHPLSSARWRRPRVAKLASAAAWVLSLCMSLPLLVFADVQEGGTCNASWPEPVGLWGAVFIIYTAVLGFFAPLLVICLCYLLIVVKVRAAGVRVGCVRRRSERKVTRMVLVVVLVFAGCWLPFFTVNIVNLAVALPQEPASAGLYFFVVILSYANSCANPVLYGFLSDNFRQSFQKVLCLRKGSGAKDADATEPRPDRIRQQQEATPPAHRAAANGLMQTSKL
Protocol: (§1) Radiolabeling binding assays were carried out as described in the prior art like, e.g. in Gazal S. et al (2002) J. Med. Chem. 45: 1665-1671. The radioligand binding assays were carried out on membranes prepared from CHO-K1 cells stably expressing individually cloned somatostatin receptors 2 or 5 (SSTR2 or SSTR5). Cells were grown for 2 days for almost confluence and were washed and scraped into 50 mM ice-cold Tris-HCl, pH 7.8, containing 1 mM EGTA, 5 mM MgCl2, […], 0.1 mM PMSF, and 0.5 mg/mL aprotinin (buffer A) and were centrifuged at 10,000 rpm for 10 min at 4° C. (in Sorvall RC 26 Plus ultracentrifuge, rotor SS-34). The pellet was resuspended in buffer A and homogenized with a Polytron PT 1200 homogenizer (Kinematica AG, Switzerland) (setting 2, 3 strokes 10 s each). The homogenate was then centrifuged at 20 000 rpm for 20 min at 4° C. The pellet was resuspended in buffer A and homogenized using the Polytron homogenizer (setting 2, 3 strokes 5 s each). The protein content was determined by Bradford, and the membrane preparation was diluted in buffer A containing 1 mg/mL bovine serum albumin (BSA) to a final 0.2 or 0.4 mg/mL membrane protein (depending on the specific somatostatin receptor used).
(§2) The radioligand binding assay was performed in 96 well microtiter plates (Maxisorp plates, Nunc, Denmark). Cell membranes ([…] protein) were incubated with the various cyclized peptides indicated in Table 1 & 2, which comprised a lanthanide chelation unit, in a final volume of 250 μL, for 45 min. at room temperature in the presence or absence of competing peptides. Nonspecific binding was defined as the radioactivity remaining bound in the presence of […] somatostatin. At the end of the binding, reaction free radioligand was separated from bound Ligand by rapid filtration through UniFilter GF/C plates preincubated in a solution of 5 g/L polyethyleneimine and 1 g/L BSA. The filtration was performed in Filter-Mate Cell Harvester (Packard Instrument Company, U.S.A.). After filtration, the filters were washed several times with cold buffer A containing 1 mg/mL BSA and allowed to dry overnight at room temperature. Then, bound radioactivity was counted. The binding assays were performed in triplicate wells. Data from radioligand binding were used to generate inhibition curves, and IC50 values were determined for each of the tested peptides. The saturation binding data were analyzed by the method of Scatchard, and IC50 values are expressed as mean±SEM (standard error of the mean).

SSTR2 = SSTR2 (Homo sapiens, UniProt P30874); test: Radioligand binding assay on membranes of CHO-K1 cells expressing SSTR2; settings: membranes from CHO-K1 cells stably expressing cloned somatostatin receptor 2
Chain of SSTR2 (P30874 whole entry): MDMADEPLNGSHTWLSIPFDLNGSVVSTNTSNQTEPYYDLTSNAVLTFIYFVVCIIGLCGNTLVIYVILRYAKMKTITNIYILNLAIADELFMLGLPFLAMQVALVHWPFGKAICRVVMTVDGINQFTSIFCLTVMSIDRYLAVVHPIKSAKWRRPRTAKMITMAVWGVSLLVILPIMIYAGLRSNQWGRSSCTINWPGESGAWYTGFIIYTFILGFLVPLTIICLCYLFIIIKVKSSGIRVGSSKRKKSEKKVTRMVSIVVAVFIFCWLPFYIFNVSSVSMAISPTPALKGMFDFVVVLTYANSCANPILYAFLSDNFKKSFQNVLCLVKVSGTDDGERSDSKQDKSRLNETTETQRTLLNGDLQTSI
Protocol: as §1, §2

somatostatin receptor 5 = target: T1, somatostatin receptor 5 (UniProt P35346 1-364, limits assumed); test: ratio of IC50 on SSTR2 to IC50 on SSTR5 (reference SSTR2), radioligand competition binding on CHO-K1 membranes
T1 construct: whole, on cells; Assayed as membrane preparation of CHO-K1 cells stably expressing the cloned receptor; also called SSTR5; somatostatin receptor subtype 5
T1 sequence (P35346 whole entry): as the sequence (P35346 whole entry) above

| Molecule | Ratio 2/5 in % (SSTR5) [%] | IC50 (SSTR5) [nM] | IC50 (SSTR2) [nM] | Ratio 2/5 in % (somatostatin receptor 5) [%] |
| --- | --- | --- | --- | --- |
| CSCC[C@@H]1NC(=O)[C@H](CC2CC2)NC(=O)[C@H](CCCCN)NC(=O)[C@@H](Cc2c[nH]c3ccccc23)NC(=O)[C@H](Cc2ccc(O)cc2)NC(=O)[C@H](Cc2ccccc2)N(C)C1=O [P2300, cyclo[Tyr-DTrp-Lys-BAla(cyclopropyl)-Met-(N-Me)Phe]] (cyclo([Ala(cPr)]M[NMeF]Y[dW]K)) | 0.96 | – | – | – |
| CSCC[C@@H]1NC(=O)[C@H]([C@@H](C)O)NC(=O)[C@H](CCCCN)NC(=O)[C@@H](Cc2c[nH]c3ccccc23)NC(=O)[C@H](Cc2ccncc2)NC(=O)[C@H](Cc2ccccc2)N(C)C1=O [P2281, cyclo[(4)Pal-DTrp-Lys-Thr-Met-(NMe)Phe]] (cyclo([4Pal][dW]KTM[NMeF])) | 0.36 | 43.3 | 0.154 | – |
| CSCC[C@@H]1NC(=O)[C@H](CN)NC(=O)[C@H](CCCCN)NC(=O)[C@@H](Cc2c[nH]c3ccccc23)NC(=O)[C@H](Cc2ccc(O)cc2)NC(=O)[C@H](Cc2ccccc2)N(C)C1=O [P2267, cyclo[Tyr-DTrp-Lys-Dpr-Met-(NMe)Phe]] (cyclo(Y[dW]K[Dap]M[NMeF])) | 1.9 | – | – | – |
| CSCC[C@@H]1NC(=O)[C@H]([C@@H](C)O)NC(=O)[C@H](CCCCN)NC(=O)[C@@H](Cc2c[nH]c3ccccc23)NC(=O)[C@H](Cc2ccc(O)cc2)NC(=O)[C@H](Cc2ccccc2)N(C)C1=O [P2265, cyclo[Tyr-DTrp-Lys-Thr-Met-(NMe)Phe]] (cyclo(Y[dW]KTM[NMeF])) | 1.2 | 11.6 | 0.139 | – |
| CSCC[C@@H]1NC(=O)[C@H]([C@@H](C)O)NC(=O)[C@H](CCCCN)NC(=O)[C@@H](Cc2c[nH]c3ccccc23)NC(=O)[C@H](Cc2ccc3ccccc3c2)NC(=O)[C@H](Cc2ccccc2)N(C)C1=O [P2279, cyclo[2Nal-Dtrp-Lys-Thr-Met-(N-Me)Phe]] (cyclo([2Nal][dW]KTM[NMeF])) | 37.2 | 15 | 5.58 | – |
| CC(C(=O)NCC(=O)NCCCC[C@@H]1NC(=O)[C@H]([C@@H](C)O)NC(=O)[C@H](CCCCN)NC(=O)[C@@H](Cc2c[nH]c3ccccc23)NC(=O)[C@H](Cc2cccc3ccccc23)NC(=O)[C@H](Cc2ccccc2)N(C)C1=O)N1CCN(CC(=O)O)CCN(CC(=O)O)CCN(CC(=O)O)CC1 (stereo partly drawn) [P2323, cyclo[1Nal-DTrp-Lys-Thr-Lys(GlyMeDOTA)-(N-Me)Phe]] (cyclo([1Nal][dW]KTK([Gly-X1])[NMeF])) | 399.1 | – | – | – |
| CSCC[C@@H]1NC(=O)[C@H]([C@@H](C)O)NC(=O)[C@H](CCCCN)NC(=O)[C@@H](Cc2c[nH]c3ccccc23)NC(=O)[C@H](Cc2ccc(O)cc2)NC(=O)[C@@H]2Cc3c([nH]c4ccccc34)CN2C1=O [P2274, cyclo[Tyr-DTrp-Lys-Thr-Met-Tpi]] (cyclo(Y[dW]KTM[Tpi])) | 6.1 | – | – | – |
| CSCC[C@@H]1NC(=O)[C@H]([C@@H](C)O)NC(=O)[C@H](CCCCN)NC(=O)[C@@H](Cc2c[nH]c3ccccc23)NC(=O)[C@H](Cc2cccc3ccccc23)NC(=O)[C@H](Cc2ccccc2)N(C)C1=O [P2278, cyclo[(1)Nal-DTrp-Lys-Thr-Met-(NMe)Phe]] (cyclo([1Nal][dW]KTM[NMeF])) | 27.9 | 1.59 | 0.444 | – |
| CSCC[C@@H]1NC(=O)[C@H]([C@@H](C)O)NC(=O)[C@H](CCCCN)NC(=O)[C@@H](Cc2c[nH]c3ccccc23)NC(=O)[C@H](Cc2ccc(F)cc2)NC(=O)[C@H](Cc2ccccc2)N(C)C1=O [P2292, cyclo[Phe(4-F)-DTrp-Lys-Thr-Met-(N-Me)Phe]] (cyclo([Phe(4-F)][dW]KTM[NMeF])) | 2.0 | 7.61 | 0.152 | – |
| CSCC[C@@H]1NC(=O)[C@H](C(C)C)NC(=O)[C@H](CCCCN)NC(=O)[C@@H](Cc2c[nH]c3ccccc23)NC(=O)[C@H](Cc2cccc3ccccc23)NC(=O)[C@H](Cc2ccccc2)N(C)C1=O [P2329, cyclo[1Nal-DTrp-Lys-Val-Met-(N-Me)Phe]] (cyclo([1Nal][dW]KVM[NMeF])) | 10.5 | 4.17 | 0.437 | – |
| CSCC[C@@H]1NC(=O)[C@H]([C@@H](C)O)NC(=O)[C@H](CCCCN)NC(=O)[C@@H](Cc2c[nH]c3ccccc23)NC(=O)[C@H](C(c2ccccc2)c2ccccc2)NC(=O)[C@H](Cc2ccccc2)N(C)C1=O [P2326, cyclo[DiphenylAla-DTrp-Lys-Thr-Met-(N-Me)Phe]] (cyclo([Dip][dW]KTM[NMeF])) | 0.42 | 42.2 | 0.177 | – |
| CSCC[C@@H]1NC(=O)[C@H]([C@@H](C)O)NC(=O)[C@H](CCCCN)NC(=O)[C@@H](Cc2c[nH]c3ccccc23)NC(=O)[C@@H]2CSCN2C(=O)[C@H](Cc2ccccc2)NC1=O [P2297, cyclo[ThioPro-DTrp-Lys-Thr-Met-Phe]] (cyclo([Thz][dW]KTMF)) | 37.1 | 34.5 | 12.8 | – |
| B1 | – | – | – | 1.2 |
| B2 | – | – | – | 3.2 |
| B3 | – | – | – | 2 |
| B4 | – | – | – | 37.1 |
| B5 | – | – | – | 0.42 |
| B6 | – | – | – | 27.9 |
| B7 | – | – | – | 10.5 |
| B8 | – | – | – | 37.2 |
| B9 | – | – | – | 0.36 |
